Columns and labels:
[1] = target: T1, COX-2 (Homo sapiens, UniProt P35354); assay: Whole cell assay for COX-2 using CHO[hCOX-2] transfected cell line; format: cell-based; parameters: expressed in transfected cells; host or cells: CHO cells stably transfected with pCDNAIII (CHO[hCOX-2]); details: CHO[hCOX-2] cells, PGE2 synthesis, 10 μM AA
T1 sequence (P35354 18-604): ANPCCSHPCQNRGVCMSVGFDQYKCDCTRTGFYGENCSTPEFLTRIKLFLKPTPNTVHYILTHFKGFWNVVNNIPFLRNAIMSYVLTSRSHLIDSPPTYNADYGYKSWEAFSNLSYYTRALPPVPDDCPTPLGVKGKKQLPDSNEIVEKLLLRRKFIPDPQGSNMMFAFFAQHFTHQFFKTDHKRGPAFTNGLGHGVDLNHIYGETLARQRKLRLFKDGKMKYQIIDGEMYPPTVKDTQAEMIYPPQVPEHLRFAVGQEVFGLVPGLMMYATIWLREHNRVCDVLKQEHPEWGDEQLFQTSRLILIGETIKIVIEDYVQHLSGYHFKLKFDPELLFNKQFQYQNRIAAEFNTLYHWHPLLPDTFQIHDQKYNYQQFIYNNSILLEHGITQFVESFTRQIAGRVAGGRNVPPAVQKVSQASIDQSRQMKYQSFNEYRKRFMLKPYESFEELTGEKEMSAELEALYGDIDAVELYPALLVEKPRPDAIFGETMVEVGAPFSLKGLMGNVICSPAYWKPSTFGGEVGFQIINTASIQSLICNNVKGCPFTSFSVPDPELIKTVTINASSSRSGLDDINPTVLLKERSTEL
Text: Whole cell assays for COX-2 and COX-1 using CHO transfected cell lines
Chinese hamster ovary (CHO) cell lines which have been stably transfected with an eukaryotic expression vector pCDNAIII containing either the human COX-1 or COX-2 cDNA's are used for the assay. These cell lines are referred to as CHO[hCOX-1] and CHO[hCOX-2], respectively. For cyclooxygenase assays, CHO[hCOX-1] cells from suspension cultures and CHO[hCOX-2] cells prepared by trypsinization of adherent cultures are harvested by centrifugation (300×g, 10 min) and washed once in HBSS containing 15 mM HEPES, pH 7.4, and resuspended in HBSS, 15 mM HEPES, pH 7.4, at a cell concentration of 1.5×10^6 cells/ml. Drugs to be tested are dissolved in DMSO to 66.7-fold the highest test drug concentration. Compounds are typically tested at 8 concentrations in duplicate using serial 3-fold serial dilutions in DMSO of the highest drug concentration. Cells (0.3×10^6 cells in 200 μl) are preincubated with 3 μl of the test drug or DMSO vehicle for 15 min at 37° C. Working solutions of peroxide-free AA (5.5 μM and 110 μM AA for the CHO[hCOX-1] and CHO[COX-2] assays, respectively) are prepared by a 10-fold dilution of a concentrated AA solution in ethanol into HBSS containing 15 mM HEPES, pH 7.4. Cells are then challenged in the presence or absence of drug with the AA/HBSS solution to yield a final concentration of 0.5 μM AA in the CHO[hCOX-1] assay and a final concentration of 10 μM AA in the CHO[hCOX-2] assay. The reaction is terminated by the addition of 10 μl 1N HCl followed by neutralization with 20 μl of 0.5N NaOH. The samples are centrifuged at 300×g at 4° C. for 10 min, and an aliquot of the clarified supernatant is appropriately diluted for the determination of PGE2 levels using an enzyme-linked immunoassay for PGE2 (Correlate PGE2 enzyme immunoassay kit, Assay Designs, Inc.). Cyclooxygenase activity in the absence of test compounds is determined as the difference in PGE2 levels of cells challenged with arachidonic acid versus the PGE2 levels in cells mock-challenged with ethanol vehicle. Inhibition of PGE2 synthesis by test compounds is calculated as a percentage of the activity in the presence of drug versus the activity in the positive control samples.
Compounds of the present invention are inhibitors of cyclooxygenase-2 and are thereby useful in the treatment of cyclooxygenase-2 mediated diseases as enumerated above. The activities of the compounds against cyclooxygenase may be seen in the representative results shown below. In the assay, inhibition is determined by measuring the amount of prostaglandin E2 (PGE2) synthesized in the presence of arachidonic acid, cyclooxygenase-1 or cyclooxygenase-2 and a putative inhibitor. The IC50 values represent the concentration of putative inhibitor required to return PGE2 synthesis to 50% of that obtained as compared to the uninhibited control.

[2] = target: T1, COX-2; assay: Human whole blood assay, COX-2 (LPS-induced PGE2 production); format: cell-based; parameters: endogenous in cells; host or cells: fresh heparinized human whole blood from volunteers, incubated with LPS; details: LPS-induced PGE2, 24 hours at 37° C., read-out: COX-2 (IC50 μM) HWB
Method: Human whole blood provides a protein and cell-rich milieu appropriate for the study of biochemical efficacy of anti-inflammatory compounds such as selective COX-2 inhibitors. […] This is consistent with the observation that COX-2 inhibitors have no effect on PGE2 production in normal blood. These inhibitors are active only after incubation of human whole blood with LPS, which induces COX-2. This assay can be used to evaluate the inhibitory effect of selective COX-2 inhibitors on PGE2 production. As well, platelets in whole blood contain a large amount of the COX-1 enzyme. Immediately following blood clotting, platelets are activated through a thrombin-mediated mechanism. This reaction results in the production of thromboxane B2 (TxB2) via activation of COX-1. Thus, the effect of test compounds on TxB2 levels following blood clotting can be examined and used as an index for COX-1 activity. Therefore, the degree of selectivity by the test compound can be determined by measuring the levels of PGE2 after LPS induction (COX-2) and TxB2 following blood clotting (COX-1) in the same assay.
A. COX-2 (LPS-induced PGE2 production)
Fresh blood is collected in heparinized tubes by venipuncture from both male and female volunteers. The subjects have no apparent inflammatory conditions and have not taken any NSAIDs for at least 7 days prior to blood collection. Plasma is immediately obtained from a 2 mL blood aliquot to use as blank (basal levels of PGE2). The remaining blood is incubated with LPS (100 μg/ml final concentration, Sigma Chem, #L-2630 from E. coli; diluted in 0.1% BSA (Phosphate buffered saline) for 5 minutes at room temperature. Five hundred μL aliquots of blood are incubated with either 2 μL of vehicle (DMSO) or 2 μL of a test compound at final concentrations varying from 10 nM to 30 μM for 24 hours at 37° C. At the end of the incubation, the blood is centrifuged at 12,000×g for 5 minutes to obtain plasma. A 100 μL aliquot of plasma is mixed with 400 μL of methanol for protein precipitation. The supernatant is obtained and is assayed for PGE2 using a radioimmunoassay kit (Amersham, RPA#530) after conversion of PGE2 to its methyl oximate derivative according to the manufacturer's procedure.

IC50 [1]: 0.37 µM | IC50 [2]: 10.5 µM
Compound: CS(=O)(=O)c1ccc(-c2cc(CC(F)(F)F)oc(=O)c2-c2ccccc2)cc1 [Example 13, 4-(4-Methylsulfonyl)phenyl-3-phenyl-6-(2,2,2-trifluoroethyl)-pyran-2-one]

From patent US6465509B2, “Pyrones as inhibitors of cyclooxygenase-2” (Merck Frosst Canada & Co., priority 2000, dated 2002)
